# Marks after values point to notes of the source that are not given here.
# What was measured:
# [1] = system: cyclobutane pyrimidine dimer (CPD); test: UV-A irradiated mouse photoaging model: skin histology, CPD immunostaining; assay type: in vivo
# Description: (§1) Male albino hairless mice (strain name: Hos:HR-1, Hoshino Laboratory Animals Inc.) were used. The mice were divided into groups so that the body weight of each group was homogenous, and from the next day, the dorsal skin of the mice was irradiated with an incremental amount of ultraviolet A at the frequency of five times a week for 8 weeks to induce photoaging in the groups other than the untreated group. The UV-A irradiation schedule was based on the report by Minami et al. (J Nutrition Biochem 2009, 20, 389).
# (§2) Compound B: The required amount was weighed as free-form equivalent, and suspended in 0.5% MC to achieve the target concentration, and orally administered at a volume of 0.1 mL/10 g (body weight) at 3 mg/kg once daily for 8 weeks.
# (§3) HP-228 (reference control, melanocortin receptor-activating peptide): The required amount of free-form was weighed and dissolved in PBS to achieve the target concentration. 0.1 mL/10 g (body weight) was injected intraperitoneally at 3 mg/kg once daily for 8 weeks.
# Skin histological examination (endpoint c): Skin samples were fixed in 10% neutral buffered formalin and paraffin sections were prepared. DNA damage induced by UV-A was detected by enzyme-antibody immunostaining using anti-cyclobutane pyrimidine dimer (CPD) antibody (Cosmo Bio).
# type I collagen = test: UV-A irradiated mouse photoaging model: type I collagen content in the skin; assay type: in vivo; settings: 3 mg/kg once daily for 8 weeks (compound B oral, HP-228 intraperitoneal); FIG. 4
# Description: as §1, §2, §3
# Quantification of type I collagen content in the skin (evaluation item b): Mice were euthanized 8 weeks after UV-A irradiation, and their back skin was collected. Homogenates were prepared by adding acetic acid and pepsin to the collected skin. The amount of collagen in the skin homogenate, which was reduced by UV-A, was measured using the Mouse Collagen Type I ELISA Kit. […]
# [2] = system: Male albino hairless mice (Hos:HR-1); test: UV-A irradiated mouse photoaging model: skin wrinkles by visual observation; assay type: in vivo; settings: 3 mg/kg once daily for 8 weeks (compound B oral, HP-228 intraperitoneal); score 0 to 3; FIG. 3
# Description: as §1, §2, §3
# Evaluation of skin wrinkles by visual observation (evaluation item a): The state of skin wrinkles was evaluated on a four-step scale from score 0 (fine wrinkles) to 3 (deep and coarse wrinkles) at a frequency of once a week for 8 weeks after UV-A irradiation.
# The skin wrinkle score was tested by Mann-Whitney's U test adjusted for multiplicity, and the significance level was set at 0.05. […]
# skin of healthy subjects = settings: FIG. 2
# [3] = system: premelanosome protein (PMEL); test: Expression of melanin-related gene PMEL in skin, clinical trial in healthy subjects; assay type: in vivo, human; settings: back skin mRNA, next day versus day before administration
# [4] = system: tyrosinase-related protein 1 (TYRP1); test: Expression of melanin-related gene TYRP1 in skin, clinical trial in healthy subjects; assay type: in vivo, human; settings: back skin mRNA, next day versus day before administration
# [5] = system: Male C57BL/6JHamSlc-Ay/+ mice; test: Effect on darkening of mouse body hair; assay type: in vivo; settings: day 6
# Protocol: Male C57BL/6JHamSlc-Ay/+ mice (Japan SLC, Inc.) were used. The test was performed with 29- or 30-days old mice, in order to use each individual whose hair cycle was at the anagen stage. The hair on the back of each of the mice was shaved with a clipper before the starting of administration, and any individual with no bad conditions such as nicks and maculae on the skin was selected, and subjected to grouping based on a group configuration shown in Table 3 by performing a simulation method so that the body weights in respective groups were uniform. Administration (also including preparation) of the test substance and evaluation of body hair were performed separately by respective different experimenters, and such evaluation was performed in a blinded manner. The starting date of administration was set to day 0, and the test substance was administered once daily for 6 days (day 0 to day 5).
# The compound was orally administered at a volume of 0.1 mL/10 g (body weight).
# NDP-αMSH (control drug): a required amount of compound was weighed as free-form equivalent, and dissolved in Dulbecco's phosphate-buffered saline (PBS) at a concentration of 0.4 mg/mL. The drug was subcutaneously administered at a volume of 0.05 mL/10 g (body weight).
# Evaluation and sampling were performed on day 6. The mice were euthanized by cervical dislocation, thereafter subjected to hair shaving of each back with a clipper, and each individual was rated as positive (+) or negative (−) by the degree of darkening of body hair.
# A statistical analysis was performed by SAS, and the significance level was 0.05. A 0.5% MC administration group and an NDP-αMSH group were analyzed by Fisher's exact probability test. […] The fixed-order test was performed by Fisher's exact probability test from a higher dose, and, if significant, performing analysis at a lower dose.
# [6] = system: Mouse melanoma derived cell line B16F1 cells; test: Melanin production assay in mouse melanoma cell line
# Protocol: The following procedure was used to evaluate the effect of a MC1R agonist on melanin production from mouse melanoma cell lines.
# Mouse melanoma derived cell line B16F1 cells were used in measurement of melanin production. B16F1 cells were cultured by using Dulbecco's Modified Eagle Medium (DMEM) containing 10% fetal bovine serum (FBS) and 100 U/mL Penicillin-Streptomycin.
# One experiment was performed in triplicate, and three independent experiments were performed.
# In consideration of the correspondence of each experiment, the difference in % value from a negative control was determined by performing a two-way Dunnett's test based on each group and the number of experiments as factors. The significance level here was 5% on both sides. Such analysis was performed with SAS.
# [7] = grade + (Slight), dorsal skin, UVA irradiated, 10 animals, 3 mg/kg for 8 weeks
# [8] = grade ± (Minimal), dorsal skin, UVA irradiated, 10 animals, 3 mg/kg for 8 weeks
# [9] = 0.003 mg/kg p.o. once daily for 6 days
# [10] = 0.03 mg/kg p.o. once daily for 6 days
# [11] = 0.3 mg/kg p.o. once daily for 6 days
# [12] = 3 mg/kg p.o. once daily for 6 days
compound,measurement,setting,value
"CCO[C@H]1CC[C@H](N2C[C@@H](c3ccc(OC)cc3)[C@](OC)(C(=O)N3C[C@H](c4ccc(C(F)(F)F)cc4N4CCC(C(=O)O)CC4)C[C@H]3COC)C2)CC1.Cl.Cl (relative stereo) [Compound B, 1-{2-[(3S,5S)-1-[(3R,4R)-1-(trans-4-ethoxycyclohexyl)-3-methoxy-4-(4-methoxyphenyl)pyrrolidin-3-yl]carbonyl}-5-(methoxymethyl)pyrrolidin-3-yl]-5-(trifluoromethyl)phenyl piperidine-4-carboxylic acid, 2 hydrochloride]",Epidermal CPD staining,"[1]; 3 mg/kg once daily for 8 weeks (compound B oral, HP-228 intraperitoneal)",tended to be less positive than in the vehicle control group
same,"Number of animals, CPDs immunostaining, Cells in dermis, grading +",[1]; [7],10
same,"Number of animals, CPDs immunostaining, Epidermis (cell nuclei), grading +",[1]; [7],1
same,"Number of animals, CPDs immunostaining, Hair follicles in dermis (cell nuclei), grading +",[1]; [7],1
same,"Number of animals, CPDs immunostaining, Sebaceous glands (cell nuclei), grading +",[1]; [7],9
same,"Number of animals, CPDs immunostaining, Epidermis (cell nuclei), grading ++","[1]; grade ++ (Moderate), dorsal skin, UVA irradiated, 10 animals, 3 mg/kg for 8 weeks",6
same,"Number of animals, CPDs immunostaining, Epidermis (cell nuclei), grading +++","[1]; grade +++ (Severe), dorsal skin, UVA irradiated, 10 animals, 3 mg/kg for 8 weeks",3
same,"Number of animals, CPDs immunostaining, Hair follicles in dermis (cell nuclei), grading ±",[1]; [8],9
same,"Number of animals, CPDs immunostaining, Other tissues (incl. cytoplasm in sebaceous glands), grading ±",[1]; [8],10
same,"Number of animals, CPDs immunostaining, Sebaceous glands (cell nuclei), grading ±",[1]; [8],1
same,amount of type I collagen in the skin,type I collagen,significantly higher than that of the vehicle control group
same,skin wrinkle scores,[2],lower or tended to be lower than those of the vehicle control group
"COC[C@H]1CN(C(=O)[C@]2(F)CN(C3CCCC3)C[C@H]2c2ccc(OC)cc2)C[C@@H]1c1ccc(C(F)(F)F)cc1N1CCC(C(=O)O)CC1 [Compound A, Cocrystal of 1-{2-[(3S,4R)-1-{[(3R,4R)-1-cyclopentyl-3-fluoro-4-(4-methoxyphenyl)pyrrolidin-3-yl]carbonyl}-4-(methoxymethyl)pyrrolidin-3-yl]-5-(trifluoromethyl)phenyl}piperidine-4-carboxylic acid with phosphoric acid]",increase in melanin density of the skin,"skin of healthy subjects; 450 mg orally once daily for 14 days, subjects Fitzpatrick Type V",no increase in melanin density
same,increase in melanin density of the skin: time of maximum,skin of healthy subjects; 150 and 300 mg orally once daily for 14 days,maximum on day 15
same,PMEL Rate of changes (times),[3]; 30 mg single oral dose,1.22 times
same,PMEL Rate of changes (times),[3]; 100 mg single oral dose,1.77 times
same,PMEL Rate of changes (times),[3]; 300 mg single oral dose,2.49 times
same,PMEL Rate of changes (times),[3]; 600 mg single oral dose,3.54 times
same,TYRP1 Rate of changes (times),[4]; 30 mg single oral dose,1.3 times
same,TYRP1 Rate of changes (times),[4]; 100 mg single oral dose,1.37 times
same,TYRP1 Rate of changes (times),[4]; 300 mg single oral dose,2.14 times
same,TYRP1 Rate of changes (times),[4]; 600 mg single oral dose,2.65 times
same,Number of mice Negative (darkening of body hair),[5]; [9],7
same,Number of mice Positive (darkening of body hair),[5]; [9],0
same,Number of mice Negative (darkening of body hair),[5]; [10],7
same,Number of mice Positive (darkening of body hair),[5]; [10],0
same,Number of mice Negative (darkening of body hair),[5]; [11],0
same,Number of mice Positive (darkening of body hair),[5]; [11],7**
same,Number of mice Negative (darkening of body hair),[5]; [12],0
same,Number of mice Positive (darkening of body hair),[5]; [12],7**
same,melanin production,"[6]; B16F1 cells, 3 days, FIG. 1",induced melanin production in a concentration-dependent manner
same,EC50,"[6]; Mus musculus, B16-F1, 72 h, read-out: EC50 value, melanin production",0.013 nM

# Reference: patent US20230226034A1, “PROPHYLACTIC OR THERAPEUTIC AGENT FOR PHOTODERMATOSIS” (MITSUBISHI TANABE PHARMA CORPORATION, priority 2020, published 2023)
